Source: article PMC10965220 (Bioorganic chemistry, 2022)

Legend:
human COX-1 = biological target: T1, human COX-1 (Ovis aries, UniProt P05979); test: In vitro COX-1 inhibition assay
T1 sequence (P05979 25-600): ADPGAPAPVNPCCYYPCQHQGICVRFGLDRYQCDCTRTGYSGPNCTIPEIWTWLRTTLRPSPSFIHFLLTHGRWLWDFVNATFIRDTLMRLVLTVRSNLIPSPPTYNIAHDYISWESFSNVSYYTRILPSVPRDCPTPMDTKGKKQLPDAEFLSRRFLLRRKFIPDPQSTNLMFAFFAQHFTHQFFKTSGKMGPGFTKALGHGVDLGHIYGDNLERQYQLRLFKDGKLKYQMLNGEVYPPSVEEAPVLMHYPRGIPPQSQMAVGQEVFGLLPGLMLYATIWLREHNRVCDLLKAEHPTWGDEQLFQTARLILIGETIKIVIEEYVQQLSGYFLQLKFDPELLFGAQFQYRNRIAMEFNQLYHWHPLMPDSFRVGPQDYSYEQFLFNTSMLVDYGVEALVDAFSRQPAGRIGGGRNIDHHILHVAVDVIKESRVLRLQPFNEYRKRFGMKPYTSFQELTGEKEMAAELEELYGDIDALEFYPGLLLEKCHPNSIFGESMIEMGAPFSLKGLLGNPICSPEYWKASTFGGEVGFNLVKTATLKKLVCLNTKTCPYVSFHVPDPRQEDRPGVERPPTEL

human COX-2 = biological target: T2, human COX-2 (Homo sapiens, UniProt P35354); test: In vitro COX-2 inhibition assay; details: for COX-2 SI: Selectivity index = COX-1 IC50/COX-2 IC50
T2 sequence (P35354 18-604): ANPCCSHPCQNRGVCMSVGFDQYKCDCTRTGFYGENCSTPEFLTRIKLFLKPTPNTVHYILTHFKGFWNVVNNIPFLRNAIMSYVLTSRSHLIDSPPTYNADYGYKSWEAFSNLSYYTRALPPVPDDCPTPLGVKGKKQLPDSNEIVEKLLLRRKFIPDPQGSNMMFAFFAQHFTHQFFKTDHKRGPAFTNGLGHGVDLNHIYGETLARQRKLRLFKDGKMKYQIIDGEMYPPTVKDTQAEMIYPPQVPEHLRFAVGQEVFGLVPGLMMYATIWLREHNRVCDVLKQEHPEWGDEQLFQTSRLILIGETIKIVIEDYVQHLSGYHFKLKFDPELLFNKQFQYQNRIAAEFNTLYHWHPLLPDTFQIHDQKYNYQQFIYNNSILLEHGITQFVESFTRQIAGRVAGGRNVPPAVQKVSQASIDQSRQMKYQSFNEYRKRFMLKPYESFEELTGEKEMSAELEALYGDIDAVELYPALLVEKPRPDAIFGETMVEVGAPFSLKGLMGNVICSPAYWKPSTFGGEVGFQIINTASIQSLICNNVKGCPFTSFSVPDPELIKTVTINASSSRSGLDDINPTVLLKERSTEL

[1] = test system: LPS-induced NO production in RAW 264.7 cells; test: NO production in LPS-activated RAW 264.7 macrophages; type: cell-based, murine; details: vs reference celecoxib
[2] = test system: LPS-induced ROS production in RAW 264.7 cells; test: ROS production in LPS-activated RAW 264.7 macrophages; type: cell-based, murine; details: vs reference celecoxib

SMILES | IC50 (human COX-1) [µM] | IC50 (human COX-2) [µM] | COX-2 SI (human COX-2) | fold better NO IC50 than celecoxib [1] | fold lower ROS IC50 than celecoxib [2]
O=C(CSc1nnc(-c2ccc(NC(=O)c3cccnc3)cc2)o1)Nc1ccc(F)cc1 [Compound 8e, N-(4-(5-((2-((4-Fluorophenyl)amino)-2-oxoethyl)thio)-1,3,4-oxadiazol-2-yl)phenyl)nicotinamide] | 7.5 ± 0.75 | 0.11 ± 0.01 | 68.18 | – | –
CC(=O)c1ccc(NC(=O)CSc2nnc(-c3ccc(NC(=O)c4cccnc4)cc3)o2)cc1 [Compound 8a, N-(4-(5-((2-((4-Acetylphenyl)amino)-2-oxoethyl)thio)-1,3,4-oxadiazol-2-yl)phenyl)nicotinamide] | 11.5 ± 1.01 | 0.05 ± 0.01 | 230 | – | –
O=C(CSc1nnc(-c2ccc(NC(=O)c3cccnc3)cc2)o1)Nc1ccccc1Cl [Compound 8g, N-(4-(5-((2-((2-Chlorophenyl)amino)-2-oxoethyl)thio)-1,3,4-oxadiazol-2-yl)phenyl)nicotinamide] | 8.5 ± 0.71 | 0.05 ± 0.01 | 170 | – | –
O=C(CSc1nnc(-c2ccc(NC(=O)c3cccnc3)cc2)o1)Nc1cccc(Br)c1 [Compound 8f, N-(4-(5-((2-((3-Bromophenyl)amino)-2-oxoethyl)thio)-1,3,4-oxadiazol-2-yl)phenyl)nicotinamide] | 10 ± 3.17 | 0.08 ± 0.01 | 125 | – | –
Cc1ccc(C)c(NC(=O)CSc2nnc(-c3ccc(NC(=O)c4cccnc4)cc3)o2)c1 [Compound 8d, N-(4-(5-((2-((2,5-Dimethylphenyl)amino)-2-oxoethyl)thio)-1,3,4-oxadiazol-2-yl)phenyl) nicotinamide] | 10.5 ± 2.98 | 0.16 ± 0.04 | 65.63 | – | –
Cc1ccc(NC(=O)CSc2nnc(-c3ccc(NC(=O)c4cccnc4)cc3)o2)cc1 [Compound 8c, N-(4-(5-((2-((4-Methylphenyl)amino)-2-oxoethyl)thio)-1,3,4-oxadiazol-2-yl)phenyl)nicotinamide] | 11.5 ± 0.85 | 0.05 ± 0.01 | 230 | – | –
Cc1ccc(C=Nn2c(-c3ccc(NC(=O)c4cccnc4)cc3)n[nH]c2=S)cc1 [Compound 10a, N-(4-(4-((4-Methylbenzylidene)amino)-5-thioxo-4,5-dihydro-1H-1,2,4-triazol-3-yl)phenyl) nicotinamide] | 11.5 ± 0.98 | 0.11 ± 0.02 | 104.55 | – | –
O=C(Nc1ccc(-c2n[nH]c(=S)n2N=Cc2c[nH]c3ccccc23)cc1)c1cccnc1 [Compound 10b, N-(4-(4-(((1H-Indol-3-yl)methylene)amino)-5-thioxo-4,5-dihydro-1H-1,2,4-triazol-3-yl)phenyl) nicotinamide] | 8 ± 0.14 | 0.11 ± 0.01 | 72.73 | – | –
O=C(CSc1nnc(-c2ccc(NC(=O)c3cccnc3)cc2)o1)Nc1ccc([N+](=O)[O-])cc1 [Compound 8b, N-(4-(5-((2-((4-Nitrophenyl)amino)-2-oxoethyl)thio)-1,3,4-oxadiazol-2-yl)phenyl)nicotinamide] | 8.5 ± 0.6 | 0.14 ± 0.01 | 60.71 | more than 41 fold | about 476 fold

The remaining lines, values ahead:

IC50 (human COX-1) [µM] | IC50 (human COX-2) [µM] | COX-2 SI (human COX-2) | fold better NO IC50 than celecoxib [1] | fold lower ROS IC50 than celecoxib [2] | SMILES
11.5 ± 1.41 | 0.08 ± 0.01 | 143.75 | – | – | Nn1c(SCC(=O)Nc2ccc([N+](=O)[O-])cc2)nnc1-c1ccc(NC(=O)c2cccnc2)cc1 [Compound 11b, N-(4-(4-Amino-5-((2-((4-nitrophenyl)amino)-2-oxoethyl)thio)-4H-1,2,4-triazol-3-yl)phenyl) nicotinamide]
8.5 ± 0.62 | 0.11 ± 0.01 | 77.27 | – | – | CC(=O)c1ccc(NC(=O)CSc2nnc(-c3ccc(NC(=O)c4cccnc4)cc3)n2N)cc1 [Compound 11a, N-(4-(5-((2-((4-Acetylphenyl)amino)-2-oxoethyl)thio)-4-amino-4H-1,2,4-triazol-3-yl)phenyl) nicotinamide]
13.5 ± 1.63 | 0.04 ± 0.01 | 337.5 | – | – | Cc1ccc(NC(=O)CSc2nnc(-c3ccc(NC(=O)c4cccnc4)cc3)n2N)cc1 [Compound 11c, N-(4-(4-Amino-5-((2-((4-methylphenyl)amino)-2-oxoethyl)thio)-4H-1,2,4-triazol-3-yl)phenyl) nicotinamide]
9.5 ± 0.99 | 0.09 ± 0.01 | 105.56 | – | – | Nn1c(SCC(=O)Nc2cccc(Br)c2)nnc1-c1ccc(NC(=O)c2cccnc2)cc1 [Compound 11f, N-(4-(4-Amino-5-((2-((3-bromophenyl)amino)-2-oxoethyl)thio)-4H-1,2,4-triazol-3-yl)phenyl) nicotinamide]
10 ± 2.34 | 0.06 ± 0.01 | 166.67 | – | – | Nn1c(SCC(=O)Nc2ccc(F)cc2)nnc1-c1ccc(NC(=O)c2cccnc2)cc1 [Compound 11e, N-(4-(4-Amino-5-((2-((4-fluorophenyl)amino)-2-oxoethyl)thio)-4H-1,2,4-triazol-3-yl)phenyl) nicotinamide]
10.5 ± 3.03 | 0.08 ± 0.01 | 131.25 | – | – | Cc1ccc(C)c(NC(=O)CSc2nnc(-c3ccc(NC(=O)c4cccnc4)cc3)n2N)c1 [Compound 11d, N-(4-(4-Amino-5-((2-((2,5-dimethylphenyl)amino)-2-oxoethyl)thio)-4H-1,2,4-triazol-3-yl)phenyl) nicotinamide]
10.5 ± 2.25 | 0.08 ± 0.01 | 131.25 | – | – | Nn1c(SCC(=O)Nc2ccccc2Cl)nnc1-c1ccc(NC(=O)c2cccnc2)cc1 [Compound 11g, N-(4-(4-Amino-5-((2-((2-chlorophenyl)amino)-2-oxoethyl)thio)-4H-1,2,4-triazol-3-yl)phenyl) nicotinamide]
